Experimental data: patent publication EP1161410B1, “RETINOID ANTAGONISTS AND USE THEREOF” (Basilea Pharmaceutica AG, priority 1999, dated 2000)

Key:
IL-12 [1] = experiment: IL-12 production by activated monocytes (SAC + IFN-γ), ELISA; assay type: cell-based, human; details: SAC+IFN-γ alone 120-126 pg/ml
Description: THP-1 cells were obtained from American Tissue Culture Collection and cultured in complete medium. […] Exp. Med. 183, 147-157 (1996)]. […] Supernatants were collected after 48 hours and freezed at -20 °C until assayed [[…]-Bordignon et al., J. Clin. Invest. 100, 1513-1519 (1997)]. […] Clin. Invest. 93, 1733-1739 (1994)]. […] Absorbance was read at 450-650 nm. The unknown IL-12 concentrations of the samples were read from the corresponding standard curve and multiplied by the corresponding dilution factor. […] Serial dilutions (1 μM-1 pM) were prepared in complete RPMI medium. 10 μl of each dilution was added to 1 ml culture.

TNF-α = TNF-α production by activated monocytes (SAC + IFN-γ); assay type: cell-based, human; details: SAC+IFN-γ alone 1840-2000 pg/ml
IL-12 [2] = experiment: IL-12 production by PBMC primed with IFNγ and stimulated with SAC; assay type: cell-based, human; details: IFNγ+SAC alone 360
Description: THP-1 cells were obtained from American Tissue Culture Collection and cultured in complete medium. To assay for IL-12 production, THP-1 cells, 1.25 x 10^6 cells/ml, were stimulated with S. aureus Cowan strain (SAC) (1/1000) and human recombinant interferon-γ (huIFN-γ (1000 U/ml) [Ma et al., J. Exp. Med. 183, 147-157 (1996)]. Alternatively, 0.5 x 10^6 human peripheral blood mononuclear cells (PBMC) (1 ml culture in 48 well plates) were primed with huIFN-γ (1000 U/ml) for 16 hours at 37°C, and then stimulated with SAC (1/1000). Supernatants were collected after 48 hours and freezed at -20 °C until assayed [Panina-Bordignon et al., J. Clin. Invest. 100, 1513-1519 (1997)].
IL-12 production was measured by specific enzyme linked immuno sorbant assay (ELISA), using 20C2 antibody (rat anti human IL-12 heterodimer p40-p35), at 2.5 µg/ml in coating buffer, and peroxidase-conjugated 4D6 antibody (rat anti human IL-12) at 250 ng/ml in assay buffer as described [Zhang et al., J. Clin. Invest. 93, 1733-1739 (1994)]. Standard (recombinant human IL-12, 800 pg/ml to 6 pg/ml) and samples (100 µl) diluted in assay buffer were added to duplicate wells. Absorbance was read at 450-650 nm. The unknown IL-12 concentrations of the samples were read from the corresponding standard curve and multiplied by the corresponding dilution factor. Maximal IL-12 production varied between 200 and 400 pg/ml.
Lyophilized retinoid antagonists were diluted in DMSO under yellow light, on ice at a concentration of 2 mM. Serial dilutions (1 µM-1 pM) were prepared in complete RPMI medium. 10 µl of each dilution was added to 1 ml culture.

[3] = test system: airway inflammatory cell accumulation; experiment: Murine model of allergen-induced airway inflammation: airway inflammatory cell accumulation; assay type: in vivo, C57BL/6 mice; details: for Cell Influx, Total leukocytes: vehicle 795000; for Cell Influx, Eosinophils: vehicle 335000; for Cell Influx, Macrophages: vehicle 443000
Description: Murine model of allergen-induced airway inflammation and hyperresponsiveness.
C57BL/6 mice (8-9 weeks old) are actively sensitized to ovalbumin (OA) on day 0 and on day 14 by a intraperitoneal injection of 10 µg OA + 1 mg Al(OH)3 (gel suspension) in 0.2 ml sterile saline. On day 21, the mice were challenged with 5.0 % OA aerosol for 18 minutes. The aerosol is generated by a De Vilbiss Ultra-Neb 90 ultrasonic nebulizer, the outlet of which is connected to a small plexiglass chamber containing the animals. The mice are dosed with the RXR antagonist Compound B (10 and 30 mg/kg intraperitoneally) daily for three days, 48 hours, 24 hours, and immediately prior to OA challenge. Animals are used on […].
Airway Inflammatory Cell Accumulation: On day 24, three days after the challenge with OA aerosol, animals are anesthetized with urethane (2.4 g/kg) and tracheotomized with a 23 gauge catheter. Lungs are lavaged with aliquots (2 x 1 ml) of sterile Hank's balanced salt solution without Ca^++ and Mg^++. Lavage fluid is recovered after 30 sec by gentle aspiration and pooled for each animal. Samples then are centrifuged at 2000 rpm for 15 minutes at 5 °C. Red blood cells are lysed from the resulting pellet with 0.5 ml distilled water and the cells remaining in the pellet are reconstituted with 5 ml HBSS. Samples are centrifuged a second time at 2000 rpm for 15 minutes at 5 °C. The resulting pellet is suspended in 1 ml of HBSS. Total cell number is determined from an aliquot of the cell suspension using a hemocytometer. For cytological preparations, the cells are fixed on cytocentrifuged slides stained with a modified Wright's stain. Differential counts on at least 300 cells are made using standard morphological criteria to classify cells.

[4] = Clinical trial, topical treatment of precancerous lesions of the skin (multiple actinic keratoses); assay type: in vivo, human; details: cream 1 % twice daily
Description: Efficacy of topical application of Compound B in the treatment of precancerous lesions of the skin (multiple actinic keratoses)
In a clinical trial, a cream containing 1 % of Compound B was applied on the lesions twice daily without occlusive dressing. […]

[5] = retinoid antagonist (1 µg) added after 16 hours together with SAC
[6] = retinoid antagonist (1 µg) added at time 0 together with IFNγ
[7] = Patient I, both forearms, 4 months
[8] = Patient IV, face and back of both hands, 3 months

CCCCCCCOc1cc2c(cc1/C(C)=C/c1ccc(C(=O)O)cc1)C(C)(C)CCS2(=O)=O [Compound H, p-[(E)-2-[3',4'-Dihydro-4',4'-dimethyl-7'-(beptyloxy)-2'H-1-benzothiopyran-6'-yl]propenyl]benzoic acid 1',1'-dioxide]
IL-12 (IL-12 [1]; antagonist 100 nM): 102 pg/mL | IL-12 (IL-12 [1]; antagonist 1000 nM): 251 pg/mL | TNF-α (TNF-α; antagonist 10 nM): 1392 pg/mL | TNF-α (TNF-α; antagonist 100 nM): 1600 pg/mL | TNF-α (TNF-α; antagonist 1000 nM): 1912 pg/mL | PBMC IL-12 (IL-12 [2]; [5]): 401 pg/mL | PBMC IL-12 (IL-12 [2]; [6]): 503 pg/mL

CCCCOc1c(\C(C)=C/C=C/C(C)=C/C(=O)O)cc(C(C)(C)C)cc1C(C)(C)C [Compound B, (2E,4E,6Z)-7-(3,5-di-tert.butyl-2-butyloxyphenyl]-3-methyl-2,4,6-octatrienoic acid]
IL-12 (IL-12 [1]; antagonist 10 nM): 106 pg/mL | IL-12 (IL-12 [1]; antagonist 100 nM): 161 pg/mL | IL-12 (IL-12 [1]; antagonist 1000 nM): 298 pg/mL | TNF-α (TNF-α; antagonist 10 nM): 1484 pg/mL | TNF-α (TNF-α; antagonist 100 nM): 1812 pg/mL | TNF-α (TNF-α; antagonist 1000 nM): 1560 pg/mL | PBMC IL-12 (IL-12 [2]; [5]): 367 pg/mL | PBMC IL-12 (IL-12 [2]; [6]): 568 pg/mL | Percent of reduction, Eosinophils ([3]; 10 mg/kg intraperitoneally): 48% | Percent of reduction, Macrophages ([3]; 10 mg/kg intraperitoneally): 35% | Percent of reduction, Total leukocytes ([3]; 10 mg/kg intraperitoneally): 39% | Cell Influx, Total leukocytes ([3]; 10 mg/kg intraperitoneally daily for three days): 488000 cells/ml | Cell Influx, Eosinophils ([3]; 10 mg/kg intraperitoneally): 176000 cells/ml | Cell Influx, Macrophages ([3]; 10 mg/kg intraperitoneally): 289000 cells/ml | Percent of reduction, Eosinophils ([3]; 30 mg/kg intraperitoneally): 73% | Percent of reduction, Macrophages ([3]; 30 mg/kg intraperitoneally): 62% | Percent of reduction, Total leukocytes ([3]; 30 mg/kg intraperitoneally): 66% | Cell Influx, Total leukocytes ([3]; 30 mg/kg intraperitoneally daily for three days): 271000 cells/ml | Cell Influx, Eosinophils ([3]; 30 mg/kg intraperitoneally): 91000 cells/ml | Cell Influx, Macrophages ([3]; 30 mg/kg intraperitoneally): 172000 cells/ml | Adverse Events (particularly irritation of lesions and surrounding skin) [4, 7]: none | Improvement [4, 7]: marked | Reduction in Size of Lesions ([4]; Patient I, m, 53 years, both forearms, 4 months): 50% | Adverse Events (particularly irritation of lesions and surrounding skin) ([4]; Patient II, face, 6 weeks): none | Improvement ([4]; Patient II, face, 6 weeks): slight | Reduction in Size of Lesions ([4]; Patient III (person two), face, 4 months): 30% | Adverse Events (particularly irritation of lesions and surrounding skin) ([4]; Patient III, face, 4 months): none | Improvement ([4]; Patient III, face, 4 months): moderate | Adverse Events (particularly irritation of lesions and surrounding skin) [4, 8]: none | Improvement [4, 8]: moderate | Adverse Events (particularly irritation of lesions and surrounding skin) ([4]; Patient V, face, 2 months): none | Improvement ([4]; Patient V, face, 2 months): no | Reduction in Size of Lesions ([4]; Patient V, m, 74 years, face, 2 months): 0%
